# Laboratory results reported in publication PMC10419174, “WR1065 conjugated to thiol-PEG polymers as novel anticancer prodrugs: broad spectrum efficacy, synergism, and drug resistance reversal” (Frontiers in Oncology, 2023).
# Where “and” joins values, the source holds several entries; their conditions need not be identical. Equal values may be shown once. Read-outs that look alike come from different tables or passages of the source.
# Experiments:
# [1] = system: Mammary gland MDA-MB-231 cells; assay: CyQUANT-NF proliferation assay, 48-h drug treatment; format: cell-based
# Description: Since the BRG prodrugs are composed of WR1065 as one of the major constituents, assays were conducted to determine if factors reported to modulate the activity of amino acid and polyamine plasma membrane transport systems impacted the efficacy of 4SP65 or 1LP65 in selected cancer cell lines. HL60 cells were exposed to 4SP65 with up to 0.5 mM NaCl, MBA-MD-231 cells were tested in the presence and absence of medium supplemented with estradiol plus insulin (in the BulletKit™ for growth supplements for NHMECs), HCC38 cells were exposed to 4SP65 with and without 10 µM insulin added to the growth medium, and multiple cells lines were pretreated for 24 h with 1 mM DFMO prior to starting exposures to 4SP65.
# (§1) The percentage of growth inhibition was calculated as follows: […]
# [2] = system: Strain-2 and Strain-3 NHMECs; format: cell-based; details: for cell growth, % of control cell values: 500 µM
# Source text: Normal human mammary epithelial cell (NHMEC) strains used to assess potential cytotoxicity of 4SP65 and 1LP65 were established from reduction mammoplasty tissue from a healthy donor (M99005 or ‘Strain-1’) ([53]) or purchased from ATCC (Manassas, VA, USA; batch#70043304 or ‘Strain-2’) or Cell Applications (San Diego, CA, USA; lot#1669 or ‘Strain-3’). Human cancer cell lines including HCC38, MDA-MB-231, A549, National Cancer Institute (NCI)-H460, NCI-H1437, NCI-H1975, DU145, LNCaP, PC3, PANC1, SKOV3, and HL60, which were free of Mycoplasma, were purchased from ATCC. HMESO1, PPMMill, and TOV21G cells, obtained from Dr. Brian Cunniff, were verified to be Mycoplasma negative using the LookOut® Mycoplasma PCR Detection Kit (Sigma-Aldrich) and to match previously annotated DNA fingerprints by the Vermont Integrative Genomics Resource DNA Analysis Facility.
# To assess the effects of 4SP65 or 1LP65 on the growth of normal epithelium, experiments were performed using NHMEC strains from differing donors ([53]). Strain-1 NHMECs were plated at 5,000 cells/well in 24-well plates and allowed to reach 50% confluence before treatment with 0-150 µM 4SP65 for 48 h. Cell viability was determined using a hemocytometer and trypan blue exclusion assay. Two other NHMEC strains, exposed to 0-150 µM 4SP65 or 0-500 µM 1LP65 for 48 h, were handled in the same fashion except that viability of cells in 96-well plates was determined using CyQUANT dye. Due to the short life span of these NHMECs, standard curves were not generated and fluorescence readings were used as a surrogate marker of cell number ([54]).
# NCI-H1437 NSCLC cells = details: 48-h treatment, amifostine ND = not definable up to 500 µM
# Description: as §1
# [3] = system: Mammary gland HCC38 cells; assay: CyQUANT-NF proliferation assay, 48-h drug treatment; format: cell-based
# Ovary TOV21G cells = assay: cells
# Description: as §1
# [4] = 48-h treatment, amifostine ND = not definable up to 500 µM
# [5] = 48-h treatment, amifostine ND = not definable up to 500 µM, read-out: LC50 (the source's name)
smiles,measurement,setting,value
"COCCOCCOCCOCCOCCOCCSSCCNCCCN.O=C(O)C(F)(F)F.O=C(O)C(F)(F)F [1LP65, m-PEG6-S-S-WR1065]",GI50,[1]; [4],41.8 ± 5.9 µM
same,IC50,[1]; [4],52.4 ± 4.8 µM
same,LC99,[1]; [4],135 ± 6.6 µM
same,TGI,[1]; [4],76.4 ± 9.2 µM and 76.4 µM
same,CC50,[1]; [5],110 ± 4.7 µM
same,Dose reduction value AMF ÷ 1LP65,[1]; at GI50,5.8 fold
same,IC50,"[2]; Strain-2 NHMECs, 48 h, read-out: IC50",> 500 µM
same,IC50,"[2]; Strain-2 and Strain-3, read-out: average IC50 for the two normal cell strains",> 355 µM
same,"cell growth, % of control cell values","[2]; Strain-2 cells, 48 h",19.5%
same,IC50,"[2]; Strain-3 NHMECs, 48 h, read-out: IC50",210 µM
same,"cell growth, % of control cell values","[2]; Strain-3 cells, 48 h",12.5%
same,GI50,NCI-H1437 NSCLC cells,66.2 ± 4.2 µM
same,IC50,NCI-H1437 NSCLC cells,74.8 ± 2.1 µM
same,LC99,NCI-H1437 NSCLC cells,234 ± 16 µM
same,TGI,NCI-H1437 NSCLC cells,109 ± 17 µM
same,CC50,NCI-H1437 NSCLC cells; read-out: LC50,157 ± 14 µM
same,GI50,[3]; [4],36.5 ± 2.3 µM
same,IC50,[3]; [4],47.3 ± 2.2 µM
same,LC99,[3]; [4],83.9 ± 2.9 µM
same,TGI,[3]; [4],46.9 ± 2.5 µM
same,CC50,[3]; [5],59.9 ± 2.9 µM
same,Dose reduction value AMF ÷ 1LP65,[3]; at GI50,2.1 fold
same,Dose reduction value AMF ÷ 1LP65,[3]; at IC50,5.8 fold
same,Dose reduction value AMF ÷ 1LP65,[3]; at TGI,5.4 fold
same,GI50,Ovary TOV21G cells; [4],21.3 ± 3.8 µM
same,IC50,Ovary TOV21G cells; [4],26.3 ± 3.6 µM
same,LC99,Ovary TOV21G cells; [4],92.0 ± 2.8 µM
same,TGI,Ovary TOV21G cells; [4],32.7 ± 6.2 µM
same,Dose reduction value AMF ÷ 1LP65,Ovary TOV21G cells; at GI50,2.2 fold
same,Dose reduction value AMF ÷ 1LP65,Ovary TOV21G cells; at IC50,1.6 fold
same,CC50,"Ovary TOV21G cells; read-out: LC50, 48-h treatment, amifostine ND = not definable up to 500 µM",51.3 ± 12.2 µM
